Where “and” joins values, the source holds several entries; their conditions need not be identical. Equal values may be shown once.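 Where inhibition never reached the appropriate level, the endpoint shown equals the highest concentration tested. Otherwise, values were interpolated linearly from a five-concentration, 48-hour dose response in 96-well plates. The concentration for 50% growth inhibition is given as GI50. TGI is the concentration that stops growth completely.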
Tests used:
Assay in all cases: inhibition of tumour cell growth, NCI panel, 48 h
[1] = tested on: SNB-19 CNS
[2] = tested on: UACC-62 melanoma
[3] = tested on: LOX IMVI melanoma
[4] = tested on: 786-0 renal
[5] = tested on: UO-31 renal
[6] = tested on: T-47D breast
[7] = tested on: HOP-92 NSCLC
[8] = tested on: OVCAR-3 ovarian
[9] = tested on: MALME-3M melanoma
[10] = tested on: HCT-15 colon

Compound	GI50 [1]	TGI [1]	GI50 [2] [µM]	TGI [2] [µM]	GI50 [3] [µM]	TGI [3] [µM]	GI50 [4] [µM]	TGI [4] [µM]	GI50 [5] [µM]	TGI [5] [µM]	GI50 [6] [µM]	TGI [6]	GI50 [7] [µM]	TGI [7] [µM]	GI50 [8] [µM]	TGI [8] [µM]	GI50 [9] [µM]	TGI [9] [µM]	GI50 [10] [µM]	TGI [10] [µM]
COc1ccc2c(Oc3ccc(NC(=O)c4c(C)n(CC(C)(C)O)n(-c5ccccc5)c4=O)nc3)ccnc2c1	46.4 µM	> 100 µM	6.14	42.2	10.9	> 100	22.3	> 100	4.41	> 100	25.4	> 100 µM	1.79	16.7	19.5	70.6	9.06	51.1	6.75	> 100
COC(C(=O)[C@@H](O)[C@@H](C)O)[C@@H]1Cc2cc3cc(O[C@H]4C[C@@H](O[C@H]5C[C@@H](O)[C@H](O)C(C)O5)[C@H](O)C(C)O4)c(C)c(O)c3c(O)c2C(=O)[C@H]1O[C@H]1C[C@@H](O[C@H]2C[C@@H](O[C@H]3C[C@@H](O)[C@H](OC)C(C)O3)[C@@H](O)C(C)O2)[C@H](O)C(C)O1 (stereo partly drawn)	–	> 33.3 µM	0.00659	0.0217	0.00894	0.0289	0.0313	> 26.9	0.0953	0.934	0.0139	0.237 µM	0.0122	1.27	0.0212	1.04	0.011	0.088	0.272	> 33.3
O=C(OCc1ccc2c(Cl)cc(Cl)c(O)c2n1)N1CCN(C(=O)c2cc3cc(F)ccc3[nH]2)CC1	4.13 µM	> 100 µM	1.28	> 100	0.453	> 100	4.3	> 100	2.59	> 100	> 100	> 100 µM	3.1	> 100	0.501	3.7	3.71	> 100	1.14	> 100
C/C(=N\NC(=S)N1CC2CCC(CC2)C1)c1ccccn1	0.345 µM	3.78 µM	0.309	3.3	0.0428	1.81	0.152	1.46	0.021	1.63	0.0113	1.39 µM	0.0255	0.793	< 0.0141	0.29	0.121	1.49	0.0313	2.51
CC(C)C1=C2CCC3(C)C(CCC4C5C6OCC5(CCC6(C)C)CCC43C)C2(C)CC1 (stereo not drawn)	–	98.6 µM	–	41.3	–	28.7	–	33.7	–	33.8	–	63 µM	–	40.8	–	51	–	38.6	–	40.7
O=C(N/N=C/c1ccc([N+](=O)[O-])o1)c1ccc(O)cc1	5.39 µM	> 100 µM	2.21	6.93	2.15	16.9	9.17	21.4	23.7	> 100	6.96	32.7 µM	17.5	80.9	8.33	36.1	1.11	2.56	4.06	25.4
CCCCCCCCCCCCOC1C(C(CC(=O)NCCN2CCCC2)NS(=O)(=O)c2cc(Cl)cc(Cl)c2)OC2OC(C)(C)OC21 (stereo not drawn)	2.2 µM and 1.37 µM	4.36 µM and 2.81 µM	1.85	3.3	1.9	3.5	1.68	3.27	1.9	3.44	–	4.46 µM and 2.04 µM	1.49	3	1.87	3.72	1.89	3.62	1.71	3.18

Reference: PubChem BioAssay (NCI)
